Assay results from paper PMC10729961, “Putative purine nucleoside interacting residues in the malaria parasite purine uptake transporter PfENT1 are critical for transporter function” (PLOS ONE, 2023).

Columns and labels:
Test in all cases: [3H]adenosine uptake assay, competition with cold uridine
Assay type in all cases: cell-based
PfENT1 Q135C = molecular target: T1, PfENT1 Q135C (Plasmodium falciparum, UniProt Q8IDM6, Q135C); conditions: cold uridine vs [3H]adenosine uptake, 15 min
T1 construct: expressed in transfected cells; host or cells: purine auxotrophic yeast (ade2Δ, fui1Δ), pCM189 episomal plasmid
Protocol: (§1) The radiolabeled uptake assay measures the ability of an unlabeled purine or pyrimidine substrate to inhibit the uptake of radiolabeled substrate into yeast via PfENT1 as previously described. Yeast strains containing PfENT1 (mutant or WT) were grown overnight in SDM media to a final OD600 between 0.2 and 0.5. Purine auxotrophic yeast used as a negative control were grown in YPD media. Yeast were spun down and washed three times with 15 mL phosphate buffered saline (PBS; 137 mM NaCl, 2.7 mM KCl, 10 mM KH2PO4, 10 mM Na2HPO4, pH 7.4). The final volume of yeast in PBS varied but it was diluted to a final OD600 = 0.2. […] For the dilution series, unlabeled purine/pyrimidine (Fischer Scientific Cat. #12-565-501) with a starting concentration of 25 mM was serially diluted 1:3 in PBS for a final concentration range of 3.28 nM to 6.25 mM. Yeast were incubated with radioactive substrate and the unlabeled purine/pyrimidine for 15 min. […] This ensured that competition only occurred at the transporter and not at cytoplasmic metabolic enzymes, because those are different for purines and pyrimidines. For determination of minimal and maximal uptake, yeast strains were incubated without radioactivity or with radioactivity but no cold substrate competition, respectively. […] Mats were allowed to air dry and sealed in sample bags with 5 mL of BetaPlate Scint scintillant cocktail (Perkin Elmer Cat. #1205–4401). The amount of radioactivity in each well was measured by liquid scintillation counting using a 1450 MicroBeta TriLux (Perkin Elmer). The counts per minute (cpm) were recorded and technical triplicates were averaged. IC50 values were calculated, and statistical analysis was performed using GraphPad/Prism9 software. Each experiment was repeated at least three times on separate days.
(§2) Statistical significance was calculated using one-way analysis of variance (ANOVA) with GraphPad/Prism9 software. IC50 values were calculated using the non-linear regression dose-response inhibition log(inhibitor) vs normalized response program. Cpm data was background subtracted by the cpm in yeast expressing WT PfENT1 in cold purine/pyrimidine. Data was normalized to the highest value for each mutant.

[1] = test system: purine auxotrophic yeast (ade2Δ, fui1Δ); conditions: ade2Δ strain; cold uridine vs [3H]adenosine uptake, 15 min
Protocol: as §1, §2

PfENT1 A134C = molecular target: T2, PfENT1 A134C (Plasmodium falciparum, UniProt Q8IDM6, A134C)
T2 construct: expressed in transfected cells; host or cells: purine auxotrophic yeast (ade2Δ, fui1Δ), pCM189 episomal plasmid
Protocol: as §1, §2

PfENT1 S48C = molecular target: T3, PfENT1 S48C (Plasmodium falciparum, UniProt Q8IDM6, S48C)
T3 construct: expressed in transfected cells; host or cells: purine auxotrophic yeast (ade2Δ, fui1Δ), pCM189 episomal plasmid
Protocol: as §1, §2

PfENT1 S49C = molecular target: T4, PfENT1 S49C (Plasmodium falciparum, UniProt Q8IDM6, S49C)
T4 construct: expressed in transfected cells; host or cells: purine auxotrophic yeast (ade2Δ, fui1Δ), pCM189 episomal plasmid
Protocol: as §1, §2

PfENT1 S290C = molecular target: T5, PfENT1 S290C (Plasmodium falciparum, UniProt Q8IDM6, S290C); conditions: cold uridine vs [3H]adenosine uptake, 15 min
T5 construct: expressed in transfected cells; host or cells: purine auxotrophic Saccharomyces cerevisiae (ade2Δ, fui1Δ), pCM189 episomal plasmid
Protocol: as §1, §2

PfENT1 F288C = molecular target: T6, PfENT1 F288C (Plasmodium falciparum, UniProt Q8IDM6, F288C)
T6 construct: expressed in transfected cells; host or cells: purine auxotrophic Saccharomyces cerevisiae (ade2Δ, fui1Δ), pCM189 episomal plasmid
Protocol: as §1, §2

PfENT1 I137C = molecular target: T7, PfENT1 I137C (Plasmodium falciparum, UniProt Q8IDM6, I137C)
T7 construct: expressed in transfected cells; host or cells: purine auxotrophic yeast (ade2Δ, fui1Δ), pCM189 episomal plasmid
Protocol: as §1, §2

PfENT1 L289C = molecular target: T8, PfENT1 L289C (Plasmodium falciparum, UniProt Q8IDM6, L289C)
T8 construct: expressed in transfected cells; host or cells: purine auxotrophic Saccharomyces cerevisiae (ade2Δ, fui1Δ), pCM189 episomal plasmid
Protocol: as §1, §2

PfENT1 L50C = molecular target: T9, PfENT1 L50C (Plasmodium falciparum, UniProt Q8IDM6, L50C); conditions: cold uridine vs [3H]adenosine uptake, 15 min
T9 construct: expressed in transfected cells; host or cells: purine auxotrophic yeast (ade2Δ, fui1Δ), pCM189 episomal plasmid
Protocol: as §1, §2

PfENT1 F286C = molecular target: T10, PfENT1 F286C (Plasmodium falciparum, UniProt Q8IDM6, F286C)
T10 construct: expressed in transfected cells; host or cells: purine auxotrophic yeast (ade2Δ, fui1Δ), pCM189 episomal plasmid
Protocol: as §1, §2

PfENT1 D287C = molecular target: T11, PfENT1 D287C (Plasmodium falciparum, UniProt Q8IDM6, D287C); conditions: cold uridine vs [3H]adenosine uptake, 15 min
T11 construct: expressed in transfected cells; host or cells: purine auxotrophic Saccharomyces cerevisiae (ade2Δ, fui1Δ), pCM189 episomal plasmid
Protocol: as §1, §2

PfENT1 N51C = molecular target: T12, PfENT1 N51C (Plasmodium falciparum, UniProt Q8IDM6, N51C)
T12 construct: expressed in transfected cells; host or cells: purine auxotrophic yeast (ade2Δ, fui1Δ), pCM189 episomal plasmid
Protocol: as §1, §2

PfENT1 T136C = molecular target: T13, PfENT1 T136C (Plasmodium falciparum, UniProt Q8IDM6, T136C)
T13 construct: expressed in transfected cells; host or cells: purine auxotrophic yeast (ade2Δ, fui1Δ), pCM189 episomal plasmid
Protocol: as §1, §2

PfENT1 V52C = molecular target: T14, PfENT1 V52C (Plasmodium falciparum, UniProt Q8IDM6, V52C)
T14 construct: expressed in transfected cells; host or cells: purine auxotrophic yeast (ade2Δ, fui1Δ), pCM189 episomal plasmid
Protocol: as §1, §2

PfENT1 W53C = molecular target: T15, PfENT1 W53C (Plasmodium falciparum, UniProt Q8IDM6, W53C); conditions: cold uridine vs [3H]adenosine uptake, 15 min
T15 construct: expressed in transfected cells; host or cells: purine auxotrophic yeast (ade2Δ, fui1Δ), pCM189 episomal plasmid
Protocol: as §1, §2

PfENT1 R291C = molecular target: T16, PfENT1 R291C (Plasmodium falciparum, UniProt Q8IDM6, R291C); conditions: cold uridine vs [3H]adenosine uptake, 15 min
T16 construct: expressed in transfected cells; host or cells: purine auxotrophic Saccharomyces cerevisiae (ade2Δ, fui1Δ), pCM189 episomal plasmid
Protocol: as §1, §2

WT PfENT1 = molecular target: T17, WT PfENT1 (Plasmodium falciparum, UniProt Q8IDM6)
T17 construct: expressed in transfected cells; host or cells: purine auxotrophic yeast (ade2Δ, fui1Δ), pCM189 episomal plasmid
Protocol: as §1, §2

T12 sequence (Q8IDM6 whole entry N51C): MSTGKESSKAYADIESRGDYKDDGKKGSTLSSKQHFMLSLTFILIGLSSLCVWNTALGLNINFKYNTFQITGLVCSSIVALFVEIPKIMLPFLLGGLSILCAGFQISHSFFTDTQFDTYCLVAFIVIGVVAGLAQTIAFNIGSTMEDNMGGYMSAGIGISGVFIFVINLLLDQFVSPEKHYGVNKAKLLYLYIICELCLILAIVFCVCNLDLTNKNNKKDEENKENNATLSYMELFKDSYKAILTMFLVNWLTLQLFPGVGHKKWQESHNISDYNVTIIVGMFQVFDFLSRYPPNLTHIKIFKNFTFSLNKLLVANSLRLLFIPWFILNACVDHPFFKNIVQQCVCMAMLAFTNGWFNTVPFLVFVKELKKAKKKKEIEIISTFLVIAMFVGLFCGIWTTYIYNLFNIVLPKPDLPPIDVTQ
T10 sequence (Q8IDM6 whole entry F286C): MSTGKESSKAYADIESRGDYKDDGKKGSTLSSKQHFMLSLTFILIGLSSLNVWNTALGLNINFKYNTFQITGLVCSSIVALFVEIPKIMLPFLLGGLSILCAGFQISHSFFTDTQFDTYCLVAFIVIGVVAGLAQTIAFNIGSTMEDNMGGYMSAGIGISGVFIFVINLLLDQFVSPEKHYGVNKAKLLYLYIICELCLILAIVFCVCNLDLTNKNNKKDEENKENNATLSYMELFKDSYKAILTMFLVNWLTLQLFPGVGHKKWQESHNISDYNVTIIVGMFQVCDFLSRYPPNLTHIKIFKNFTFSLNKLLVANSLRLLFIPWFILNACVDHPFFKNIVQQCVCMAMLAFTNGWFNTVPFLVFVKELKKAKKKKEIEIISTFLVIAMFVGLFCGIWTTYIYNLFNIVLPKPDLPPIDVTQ
T4 sequence (Q8IDM6 whole entry S49C): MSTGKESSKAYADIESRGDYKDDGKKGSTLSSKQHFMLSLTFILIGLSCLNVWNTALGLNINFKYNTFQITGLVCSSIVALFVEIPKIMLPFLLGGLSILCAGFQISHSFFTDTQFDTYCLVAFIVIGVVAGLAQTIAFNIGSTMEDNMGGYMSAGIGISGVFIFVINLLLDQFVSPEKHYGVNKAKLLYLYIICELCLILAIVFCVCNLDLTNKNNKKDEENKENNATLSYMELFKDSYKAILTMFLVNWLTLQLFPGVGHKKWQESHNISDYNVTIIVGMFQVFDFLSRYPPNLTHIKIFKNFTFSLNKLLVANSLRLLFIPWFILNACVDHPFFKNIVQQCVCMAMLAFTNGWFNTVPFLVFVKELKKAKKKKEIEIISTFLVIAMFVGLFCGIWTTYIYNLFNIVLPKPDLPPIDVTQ
T3 sequence (Q8IDM6 whole entry S48C): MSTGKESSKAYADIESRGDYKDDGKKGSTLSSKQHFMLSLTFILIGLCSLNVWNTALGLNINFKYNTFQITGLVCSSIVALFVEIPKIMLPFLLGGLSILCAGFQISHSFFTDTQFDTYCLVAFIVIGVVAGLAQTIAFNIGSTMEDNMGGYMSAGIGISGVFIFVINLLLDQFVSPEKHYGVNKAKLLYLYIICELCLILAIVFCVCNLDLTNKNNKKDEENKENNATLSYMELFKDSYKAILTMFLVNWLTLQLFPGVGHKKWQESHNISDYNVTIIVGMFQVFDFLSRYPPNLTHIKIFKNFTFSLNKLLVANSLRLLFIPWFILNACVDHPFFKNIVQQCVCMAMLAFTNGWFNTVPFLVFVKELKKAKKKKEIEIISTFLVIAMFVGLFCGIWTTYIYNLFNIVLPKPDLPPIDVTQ
T8 sequence (Q8IDM6 whole entry L289C): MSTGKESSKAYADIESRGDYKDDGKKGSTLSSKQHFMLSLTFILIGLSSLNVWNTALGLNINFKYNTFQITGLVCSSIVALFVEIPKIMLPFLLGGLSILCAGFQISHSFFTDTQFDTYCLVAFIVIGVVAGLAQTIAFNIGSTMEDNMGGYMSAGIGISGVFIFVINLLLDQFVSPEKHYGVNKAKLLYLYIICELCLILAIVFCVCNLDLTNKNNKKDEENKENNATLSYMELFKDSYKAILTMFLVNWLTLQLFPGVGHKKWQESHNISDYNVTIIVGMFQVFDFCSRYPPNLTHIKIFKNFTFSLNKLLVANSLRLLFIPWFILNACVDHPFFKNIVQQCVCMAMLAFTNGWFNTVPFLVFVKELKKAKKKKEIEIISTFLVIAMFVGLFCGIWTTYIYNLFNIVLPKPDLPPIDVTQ
T13 sequence (Q8IDM6 whole entry T136C): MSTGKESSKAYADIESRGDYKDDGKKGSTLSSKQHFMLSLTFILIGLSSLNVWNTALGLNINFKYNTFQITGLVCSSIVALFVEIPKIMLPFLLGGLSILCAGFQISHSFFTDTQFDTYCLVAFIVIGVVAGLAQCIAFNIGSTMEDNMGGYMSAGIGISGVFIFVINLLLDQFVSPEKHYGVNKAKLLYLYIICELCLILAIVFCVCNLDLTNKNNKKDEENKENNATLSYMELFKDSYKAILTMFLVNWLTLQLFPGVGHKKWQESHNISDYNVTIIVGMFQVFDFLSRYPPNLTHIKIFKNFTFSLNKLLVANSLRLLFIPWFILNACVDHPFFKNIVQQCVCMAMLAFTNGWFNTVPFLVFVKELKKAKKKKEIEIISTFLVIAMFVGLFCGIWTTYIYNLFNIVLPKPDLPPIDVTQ
T14 sequence (Q8IDM6 whole entry V52C): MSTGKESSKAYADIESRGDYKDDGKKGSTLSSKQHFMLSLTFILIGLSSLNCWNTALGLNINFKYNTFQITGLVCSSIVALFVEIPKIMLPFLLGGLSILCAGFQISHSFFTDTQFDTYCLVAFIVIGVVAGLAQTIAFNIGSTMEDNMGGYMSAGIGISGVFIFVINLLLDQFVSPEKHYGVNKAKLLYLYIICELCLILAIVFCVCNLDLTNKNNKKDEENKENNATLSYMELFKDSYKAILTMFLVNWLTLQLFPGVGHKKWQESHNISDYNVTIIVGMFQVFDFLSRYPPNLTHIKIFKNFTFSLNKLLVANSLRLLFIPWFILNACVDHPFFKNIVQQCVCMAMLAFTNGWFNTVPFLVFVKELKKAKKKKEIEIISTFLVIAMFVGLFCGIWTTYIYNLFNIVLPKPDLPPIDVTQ
T6 sequence (Q8IDM6 whole entry F288C): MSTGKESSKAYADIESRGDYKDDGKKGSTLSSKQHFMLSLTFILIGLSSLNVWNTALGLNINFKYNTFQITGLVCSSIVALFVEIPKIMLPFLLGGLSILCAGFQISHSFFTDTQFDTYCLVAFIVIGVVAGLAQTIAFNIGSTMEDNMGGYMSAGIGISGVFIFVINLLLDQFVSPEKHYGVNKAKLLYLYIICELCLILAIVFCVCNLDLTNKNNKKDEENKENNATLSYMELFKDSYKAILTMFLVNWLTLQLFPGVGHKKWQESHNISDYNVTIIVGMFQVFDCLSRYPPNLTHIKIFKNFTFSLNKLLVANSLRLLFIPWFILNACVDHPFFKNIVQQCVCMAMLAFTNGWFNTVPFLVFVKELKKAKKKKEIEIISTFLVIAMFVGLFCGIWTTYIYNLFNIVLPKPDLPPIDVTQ
T7 sequence (Q8IDM6 whole entry I137C): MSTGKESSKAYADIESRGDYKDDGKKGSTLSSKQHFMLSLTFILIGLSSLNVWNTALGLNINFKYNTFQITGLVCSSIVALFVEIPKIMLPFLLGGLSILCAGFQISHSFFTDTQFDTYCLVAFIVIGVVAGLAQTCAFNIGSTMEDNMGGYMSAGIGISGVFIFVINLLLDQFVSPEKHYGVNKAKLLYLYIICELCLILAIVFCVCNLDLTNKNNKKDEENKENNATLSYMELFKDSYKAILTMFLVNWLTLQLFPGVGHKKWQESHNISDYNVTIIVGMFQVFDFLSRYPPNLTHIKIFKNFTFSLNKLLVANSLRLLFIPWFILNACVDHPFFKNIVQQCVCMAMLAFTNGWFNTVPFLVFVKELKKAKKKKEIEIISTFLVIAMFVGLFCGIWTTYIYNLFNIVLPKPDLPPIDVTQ
T2 sequence (Q8IDM6 whole entry A134C): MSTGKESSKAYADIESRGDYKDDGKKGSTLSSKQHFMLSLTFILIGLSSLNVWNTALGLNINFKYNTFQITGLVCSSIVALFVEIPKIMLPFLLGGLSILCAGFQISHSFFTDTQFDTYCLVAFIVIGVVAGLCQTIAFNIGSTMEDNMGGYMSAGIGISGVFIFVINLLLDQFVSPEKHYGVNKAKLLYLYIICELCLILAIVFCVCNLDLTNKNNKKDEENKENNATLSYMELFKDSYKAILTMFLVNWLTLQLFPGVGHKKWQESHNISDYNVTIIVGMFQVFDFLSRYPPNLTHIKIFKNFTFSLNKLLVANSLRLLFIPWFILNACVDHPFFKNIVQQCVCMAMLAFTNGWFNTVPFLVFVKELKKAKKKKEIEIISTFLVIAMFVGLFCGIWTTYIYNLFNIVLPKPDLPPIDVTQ
T15 sequence (Q8IDM6 whole entry W53C): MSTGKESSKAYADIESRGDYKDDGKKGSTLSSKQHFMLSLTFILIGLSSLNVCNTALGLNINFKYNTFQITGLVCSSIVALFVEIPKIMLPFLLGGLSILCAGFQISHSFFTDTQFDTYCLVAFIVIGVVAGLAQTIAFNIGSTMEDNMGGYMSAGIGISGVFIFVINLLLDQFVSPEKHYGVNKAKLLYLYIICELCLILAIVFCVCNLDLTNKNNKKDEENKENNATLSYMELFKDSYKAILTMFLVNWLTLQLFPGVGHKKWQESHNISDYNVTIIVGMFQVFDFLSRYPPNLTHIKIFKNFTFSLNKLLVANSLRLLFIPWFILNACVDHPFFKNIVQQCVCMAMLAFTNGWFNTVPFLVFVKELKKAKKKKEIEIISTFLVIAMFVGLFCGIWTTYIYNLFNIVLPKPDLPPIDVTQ

`O=c1ccn([C@@H]2O[C@H](CO)[C@@H](O)[C@H]2O)c(=O)[nH]1` [Uridine, uridine] was tested, and the “Average IC50 (μM) Uridine” value (PfENT1 Q135C) was “no uptake”, the “Average IC50 (μM) Uridine” value [1] was “no uptake” and the IC50 (PfENT1 A134C) was 1020 ± 207 µM. The “Mutant/WT Ratio Uridine” value (PfENT1 A134C; A134C, ratio of IC50 values) was 1.02, the IC50 (PfENT1 S48C) was 801 ± 46 µM and the “Mutant/WT Ratio Uridine” value (PfENT1 S48C; S48C, ratio of IC50 values) was 0.8. For the same compound, the IC50 (PfENT1 S49C) was 1060 ± 30 µM, the “Mutant/WT Ratio Uridine” value (PfENT1 S49C; S49C, ratio of IC50 values) was 1.06 and the “Average IC50 (μM) Uridine” value (PfENT1 S290C) was “no uptake”. The IC50 (PfENT1 F288C) was 850 ± 138 µM, the “Mutant/WT Ratio Uridine” value (PfENT1 F288C; F288C, ratio of IC50 values) was 0.85 and the IC50 (PfENT1 I137C) was 904 ± 21 µM. For the same compound, the “Mutant/WT Ratio Uridine” value (PfENT1 I137C; I137C, ratio of IC50 values) was 0.91, the IC50 (PfENT1 L289C) was 905 ± 164 µM and the “Mutant/WT Ratio Uridine” value (PfENT1 L289C; L289C, ratio of IC50 values) was 0.91. The “Average IC50 (μM) Uridine” value (PfENT1 L50C) was “no uptake”, the IC50 (PfENT1 F286C) was 1210 ± 139 µM and the “Mutant/WT Ratio Uridine” value (PfENT1 F286C; F286C, ratio of IC50 values) was 1.21. The “Average IC50 (μM) Uridine” value (PfENT1 D287C) was “no uptake”, the IC50 (PfENT1 N51C) was 30.9 ± 1 µM and the “Mutant/WT Ratio Uridine” value (PfENT1 N51C; N51C, ratio of IC50 values) was 0.031. The IC50 (PfENT1 T136C) was 786 ± 87 µM, the “Mutant/WT Ratio Uridine” value (PfENT1 T136C; T136C, ratio of IC50 values) was 0.79 and the IC50 (PfENT1 V52C) was 2820 ± 1440 µM. For the same compound, the “Mutant/WT Ratio Uridine” value (PfENT1 V52C; V52C, ratio of IC50 values) was 2.83, the “Average IC50 (μM) Uridine” value (PfENT1 W53C) was “no uptake” and the “Average IC50 (μM) Uridine” value (PfENT1 R291C) was “no uptake”. For the same compound, the IC50 (WT PfENT1) was 997 ± 90 µM.
